From ChEMBL document CHEMBL1151757, “Synthesis, radiosynthesis, and biological evaluation of fluorine-18-labeled 2beta-carbo(fluoroalkoxy)-3beta-(3'-((Z)-2-haloethenyl)phenyl)nortropanes: candidate radioligands for in vivo imaging of the serotonin transporter with positron emission tomography” (J Med Chem, 2008)

Tests used:
[1] = Ratio of drug uptake in pons to cerebellum in anesthetized cynomolgus monkey after 35 mins postinjection; assay type: ADME, organism-based, Macaca fascicularis; details: in vivo
[2] = Ratio of drug uptake in pons to cerebellum in anesthetized cynomolgus monkey after 85 mins postinjection; assay type: ADME, organism-based, Macaca fascicularis; details: in vivo
[3] = Ratio of drug uptake in pons to cerebellum in anesthetized cynomolgus monkey after 175 mins postinjection; assay type: ADME, organism-based, Macaca fascicularis; details: in vivo
[4] = Ratio of drug uptake in pons to cerebellum in anesthetized cynomolgus monkey after 185 mins postinjection; assay type: ADME, organism-based, Macaca fascicularis; details: in vivo
[5] = Ratio of drug uptake in medulla to cerebellum in anesthetized cynomolgus monkey after 95 mins postinjection; assay type: ADME, organism-based, Macaca fascicularis; details: in vivo
[6] = Drug uptake in anesthetized cynomolgus monkey brain occipital lobe after 2.5 mins postinjection; assay type: ADME, organism-based, Macaca fascicularis; details: in vivo
[7] = Drug uptake in anesthetized cynomolgus monkey brain occipital lobe after 3.5 mins postinjection; assay type: ADME, organism-based, Macaca fascicularis; details: in vivo
[8] = Drug uptake in anesthetized cynomolgus monkey brain occipital lobe after 18.5 mins postinjection; assay type: ADME, organism-based, Macaca fascicularis; details: in vivo
[9] = Drug uptake in anesthetized cynomolgus monkey brain occipital lobe after 155 mins postinjection; assay type: ADME, organism-based, Macaca fascicularis; details: in vivo
[10] = Drug uptake in anesthetized cynomolgus monkey brain occipital lobe after 215 mins postinjection; assay type: ADME, organism-based, Macaca fascicularis; details: in vivo
[11] = Drug uptake in anesthetized cynomolgus monkey brain frontal lobe after 18.5 mins postinjection; assay type: ADME, organism-based, Macaca fascicularis; details: in vivo
[12] = Drug uptake in anesthetized cynomolgus monkey brain frontal lobe after 45 mins postinjection; assay type: ADME, organism-based, Macaca fascicularis; details: in vivo, 0.75 h
[13] = Drug uptake in anesthetized cynomolgus monkey brain frontal lobe after 75 mins postinjection; assay type: ADME, organism-based, Macaca fascicularis; details: in vivo, 1.25 h
[14] = Drug uptake in anesthetized cynomolgus monkey brain frontal lobe after 85 mins postinjection; assay type: ADME, organism-based, Macaca fascicularis; details: in vivo
[15] = Ratio of drug uptake in midbrain to cerebellum in anesthetized cynomolgus monkey after 185 mins postinjection; assay type: ADME, organism-based, Macaca fascicularis; details: in vivo
[16] = Ratio of drug uptake in pons to cerebellum in anesthetized cynomolgus monkey after 1.5 mins postinjection; assay type: ADME, organism-based, Macaca fascicularis; details: in vivo, 0.025 h
[17] = Ratio of drug uptake in occipital lobe to cerebellum in anesthetized cynomolgus monkey after 135 mins postinjection; assay type: ADME, organism-based, Macaca fascicularis; details: in vivo, 2.25 h
Putamen [18] = assay: Drug uptake in anesthetized cynomolgus monkey brain putamen after 115 mins postinjection; assay type: ADME, organism-based, Macaca fascicularis; design: unit not given here; details: in vivo
Putamen [19] = assay: Drug uptake in anesthetized cynomolgus monkey brain putamen after 125 mins postinjection; assay type: ADME, organism-based, Macaca fascicularis; details: in vivo
Putamen [20] = assay: Drug uptake in anesthetized cynomolgus monkey brain putamen after 155 mins postinjection; assay type: ADME, organism-based, Macaca fascicularis; details: in vivo
Putamen [21] = assay: Drug uptake in anesthetized cynomolgus monkey brain putamen after 175 mins postinjection; assay type: ADME, organism-based, Macaca fascicularis; details: in vivo
Thalamus [22] = assay: Drug uptake in anesthetized cynomolgus monkey brain thalamus after 1.5 mins postinjection; assay type: ADME, organism-based, Macaca fascicularis; details: in vivo, 0.025 h
[23] = Ratio of drug uptake in occipital lobe to cerebellum in anesthetized cynomolgus monkey after 235 mins postinjection; assay type: ADME, organism-based, Macaca fascicularis; details: in vivo
[24] = Ratio of drug uptake in frontal lobe to cerebellum in anesthetized cynomolgus monkey after 125 mins postinjection; assay type: ADME, organism-based, Macaca fascicularis; details: in vivo
Midbrain [25] = assay: Drug uptake in anesthetized cynomolgus monkey brain midbrain after 135 mins postinjection; assay type: ADME, organism-based, Macaca fascicularis; details: in vivo, 2.25 h
Midbrain [26] = assay: Drug uptake in anesthetized cynomolgus monkey brain midbrain after 145 mins postinjection; assay type: ADME, organism-based, Macaca fascicularis; details: in vivo
Midbrain [27] = assay: Drug uptake in anesthetized cynomolgus monkey brain midbrain after 235 mins postinjection; assay type: ADME, organism-based, Macaca fascicularis; details: in vivo
Pons [28] = assay: Drug uptake in anesthetized cynomolgus monkey brain pons after 3.5 mins postinjection; assay type: ADME, organism-based, Macaca fascicularis; details: in vivo
Pons [29] = assay: Drug uptake in anesthetized cynomolgus monkey brain pons after 15.5 mins postinjection; assay type: ADME, organism-based, Macaca fascicularis; details: in vivo
Pons [30] = assay: Drug uptake in anesthetized cynomolgus monkey brain pons after 27.5 mins postinjection; assay type: ADME, organism-based, Macaca fascicularis; details: in vivo
Pons [31] = assay: Drug uptake in anesthetized cynomolgus monkey brain pons after 65 mins postinjection; assay type: ADME, organism-based, Macaca fascicularis; details: in vivo
Pons [32] = assay: Drug uptake in anesthetized cynomolgus monkey brain pons after 75 mins postinjection; assay type: ADME, organism-based, Macaca fascicularis; details: in vivo, 1.25 h
Midbrain [33] = assay: Drug uptake in anesthetized cynomolgus monkey brain midbrain after 205 mins postinjection; assay type: ADME, organism-based, Macaca fascicularis; details: in vivo
Pons [34] = assay: Drug uptake in anesthetized cynomolgus monkey brain pons after 185 mins postinjection; assay type: ADME, organism-based, Macaca fascicularis; details: in vivo
Pons [35] = assay: Drug uptake in anesthetized cynomolgus monkey brain pons after 195 mins postinjection; assay type: ADME, organism-based, Macaca fascicularis; details: in vivo, 3.25 h
[36] = Drug uptake in anesthetized cynomolgus monkey brain frontal lobe after 195 mins postinjection; assay type: ADME, organism-based, Macaca fascicularis; details: in vivo, 3.25 h
Caudate [37] = assay: Drug uptake in anesthetized cynomolgus monkey brain caudate after 195 mins postinjection; assay type: ADME, organism-based, Macaca fascicularis, Caudate nucleus; details: in vivo, 3.25 h
[38] = Ratio of drug uptake in caudate to cerebellum in anesthetized cynomolgus monkey after 18.5 mins postinjection; assay type: ADME, organism-based, Macaca fascicularis; details: in vivo
[39] = Ratio of drug uptake in caudate to cerebellum in anesthetized cynomolgus monkey after 55 mins postinjection; assay type: ADME, organism-based, Macaca fascicularis; details: in vivo
Medulla [40] = assay: Drug uptake in anesthetized cynomolgus monkey brain medulla after 9.5 mins postinjection; assay type: ADME, organism-based, Macaca fascicularis; details: in vivo
Medulla [41] = assay: Drug uptake in anesthetized cynomolgus monkey brain medulla after 85 mins postinjection; assay type: ADME, organism-based, Macaca fascicularis; details: in vivo
Medulla [42] = assay: Drug uptake in anesthetized cynomolgus monkey brain medulla after 125 mins postinjection; assay type: ADME, organism-based, Macaca fascicularis; details: in vivo
[43] = Ratio of drug uptake in putamen to cerebellum in anesthetized cynomolgus monkey after 165 mins postinjection; assay type: ADME, organism-based, Macaca fascicularis; details: in vivo, 2.75 h
[44] = Drug uptake in anesthetized cynomolgus monkey brain cerebellum after 45 mins postinjection; assay type: ADME, organism-based, Macaca fascicularis; details: in vivo, 0.75 h
[45] = Drug uptake in anesthetized cynomolgus monkey brain cerebellum after 65 mins postinjection; assay type: ADME, organism-based, Macaca fascicularis; details: in vivo
[46] = Drug uptake in anesthetized cynomolgus monkey brain cerebellum after 85 mins postinjection; assay type: ADME, organism-based, Macaca fascicularis; details: in vivo
Medulla [47] = assay: Drug uptake in anesthetized cynomolgus monkey brain medulla after 115 mins postinjection; assay type: ADME, organism-based, Macaca fascicularis; details: in vivo
[48] = Drug uptake in anesthetized cynomolgus monkey brain cerebellum after 165 mins postinjection; assay type: ADME, organism-based, Macaca fascicularis; details: in vivo, 2.75 h
[49] = Ratio of drug uptake in thalamus to cerebellum in anesthetized cynomolgus monkey after 9.5 mins postinjection; assay type: ADME, organism-based, Macaca fascicularis; details: in vivo
[50] = Ratio of drug uptake in thalamus to cerebellum in anesthetized cynomolgus monkey after 27.5 mins postinjection; assay type: ADME, organism-based, Macaca fascicularis; details: in vivo
[51] = Ratio of drug uptake in thalamus to cerebellum in anesthetized cynomolgus monkey after 115 mins postinjection; assay type: ADME, organism-based, Macaca fascicularis; details: in vivo
Caudate [52] = assay: Drug uptake in anesthetized cynomolgus monkey brain caudate after 1.5 mins postinjection; assay type: ADME, organism-based, Macaca fascicularis, Caudate nucleus; details: in vivo, 0.025 h
Caudate [53] = assay: Drug uptake in anesthetized cynomolgus monkey brain caudate after 6.5 mins postinjection; assay type: ADME, organism-based, Macaca fascicularis, Caudate nucleus; details: in vivo
Caudate [54] = assay: Drug uptake in anesthetized cynomolgus monkey brain caudate after 95 mins postinjection; assay type: ADME, organism-based, Macaca fascicularis, Caudate nucleus; details: in vivo
Caudate [55] = assay: Drug uptake in anesthetized cynomolgus monkey brain caudate after 225 mins postinjection; assay type: ADME, organism-based, Macaca fascicularis, Caudate nucleus; details: in vivo, 3.75 h
Putamen [56] = assay: Drug uptake in anesthetized cynomolgus monkey brain putamen after 0.5 mins postinjection; assay type: ADME, organism-based, Macaca fascicularis; details: in vivo
Thalamus [57] = assay: Drug uptake in anesthetized cynomolgus monkey brain thalamus after 4.5 mins postinjection; assay type: ADME, organism-based, Macaca fascicularis; design: unit not given here; details: in vivo, 0.075 h
Thalamus [58] = assay: Drug uptake in anesthetized cynomolgus monkey brain thalamus after 6.5 mins postinjection; assay type: ADME, organism-based, Macaca fascicularis; design: unit not given here; details: in vivo
Thalamus [59] = assay: Drug uptake in anesthetized cynomolgus monkey brain thalamus after 35 mins postinjection; assay type: ADME, organism-based, Macaca fascicularis; design: unit not given here; details: in vivo
Putamen [60] = assay: Drug uptake in anesthetized cynomolgus monkey brain putamen after 6.5 mins postinjection; assay type: ADME, organism-based, Macaca fascicularis; design: unit not given here; details: in vivo
Putamen [61] = assay: Drug uptake in anesthetized cynomolgus monkey brain putamen after 27.5 mins postinjection; assay type: ADME, organism-based, Macaca fascicularis; design: unit not given here; details: in vivo
Putamen [62] = assay: Drug uptake in anesthetized cynomolgus monkey brain putamen after 85 mins postinjection; assay type: ADME, organism-based, Macaca fascicularis; design: unit not given here; details: in vivo
Thalamus [63] = assay: Drug uptake in anesthetized cynomolgus monkey brain thalamus after 165 mins postinjection; assay type: ADME, organism-based, Macaca fascicularis; design: unit not given here; details: in vivo, 2.75 h
Midbrain [64] = assay: Drug uptake in anesthetized cynomolgus monkey brain midbrain after 12.5 mins postinjection; assay type: ADME, organism-based, Macaca fascicularis; design: unit not given here; details: in vivo
Midbrain [65] = assay: Drug uptake in anesthetized cynomolgus monkey brain midbrain after 85 mins postinjection; assay type: ADME, organism-based, Macaca fascicularis; design: unit not given here; details: in vivo
Midbrain [66] = assay: Drug uptake in anesthetized cynomolgus monkey brain midbrain after 105 mins postinjection; assay type: ADME, organism-based, Macaca fascicularis; design: unit not given here; details: in vivo, 1.75 h
Midbrain [67] = assay: Drug uptake in anesthetized cynomolgus monkey brain midbrain after 115 mins postinjection; assay type: ADME, organism-based, Macaca fascicularis; design: unit not given here; details: in vivo
Midbrain [68] = assay: Drug uptake in anesthetized cynomolgus monkey brain midbrain after 125 mins postinjection; assay type: ADME, organism-based, Macaca fascicularis; design: unit not given here; details: in vivo

Compound: O=C(OCC[18F])C1C2CCC(CC1c1cccc(/C=C\Br)c1)N2 (stereo not drawn)
- Ratio [1]: 1.1
- Ratio [2]: 1.4
- Ratio [3]: 1.8
- Ratio [4]: 1.9
- Ratio [5]: 1.5
- Drug uptake [6]: 0.36
- Drug uptake [7]: 0.64
- Drug uptake [8]: 2.89
- Drug uptake [9]: 2.67
- Drug uptake [10]: 2.01
- Drug uptake [11]: 2.39
- Drug uptake [12]: 2.85
- Drug uptake [13]: 2.86
- Drug uptake [14]: 2.88
- Ratio [15]: 2.2
- Ratio [16]: 1.6
- Ratio [17]: 1.1
- Drug uptake (Putamen [18]): 4.68
- Drug uptake (Putamen [19]): 4.59
- Drug uptake (Putamen [20]): 4.01
- Drug uptake (Putamen [21]): 3.76
- Drug uptake (Thalamus [22]): 0.08
- Ratio [23]: 1.2
- Ratio [24]: 1
- Drug uptake (Midbrain [25]): 4.67
- Drug uptake (Midbrain [26]): 4.65
- Drug uptake (Midbrain [27]): 3.76
- Drug uptake (Pons [28]): 0.82
- Drug uptake (Pons [29]): 3.73
- Drug uptake (Pons [30]): 4.1
- Drug uptake (Pons [31]): 4.56
- Drug uptake (Pons [32]): 4.51
- Drug uptake (Midbrain [33]): 4
- Drug uptake (Pons [34]): 3.6
- Drug uptake (Pons [35]): 3.63
- Drug uptake [36]: 2.18
- Drug uptake (Caudate [37]): 3.08
- Ratio [38]: 0.8
- Ratio [39]: 1.1
- Drug uptake (Medulla [40]): 3.76
- Drug uptake (Medulla [41]): 4.73
- Drug uptake (Medulla [42]): 4.14
- Ratio [43]: 1.8
- Drug uptake [44]: 3.76
- Drug uptake [45]: 3.5
- Drug uptake [46]: 3.17
- Drug uptake (Medulla [47]): 4.28
- Drug uptake [48]: 2.18
- Ratio [49]: 0.9
- Ratio [50]: 1
- Ratio [51]: 1.5
- Drug uptake (Caudate [52]): 0.04
- Drug uptake (Caudate [53]): 1.92
- Drug uptake (Caudate [54]): 4.15
- Drug uptake (Caudate [55]): 2.93
- Drug uptake (Putamen [56]): 0.01
- Drug uptake (Thalamus [57]): 1.44
- Drug uptake (Thalamus [58]): 2.44
- Drug uptake (Thalamus [59]): 3.89
- Drug uptake (Putamen [60]): 3.01
- Drug uptake (Putamen [61]): 4.67
- Drug uptake (Putamen [62]): 4.94
- Drug uptake (Thalamus [63]): 3.64
- Drug uptake (Midbrain [64]): 3.83
- Drug uptake (Midbrain [65]): 4.9
- Drug uptake (Midbrain [66]): 4.87
- Drug uptake (Midbrain [67]): 4.78
- Drug uptake (Midbrain [68]): 4.73
